Read-outs that look alike come from different tables or passages of the source.
Experiments:
[1] = target: T1, human arginase I (wild-type hargI, His6-tagged) (Homo sapiens, UniProt P05089); experiment: MST binding assay, hargI
T1 construct: TEV protease site and linker (N); made in house; host or cells: E. coli BL21 (DE3) RIL
T1 sequence (P05089 with tags, fused parts or gaps): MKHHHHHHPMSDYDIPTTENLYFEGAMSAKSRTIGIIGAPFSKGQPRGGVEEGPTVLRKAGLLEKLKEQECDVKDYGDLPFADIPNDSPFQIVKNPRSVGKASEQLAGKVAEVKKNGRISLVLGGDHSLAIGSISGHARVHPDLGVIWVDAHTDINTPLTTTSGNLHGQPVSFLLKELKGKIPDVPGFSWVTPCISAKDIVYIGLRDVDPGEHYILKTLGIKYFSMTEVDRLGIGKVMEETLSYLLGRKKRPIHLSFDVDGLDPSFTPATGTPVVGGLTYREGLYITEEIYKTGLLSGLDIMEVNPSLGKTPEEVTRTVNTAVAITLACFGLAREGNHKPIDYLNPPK
Experimental: Microscale thermophoresis (MST)
MST measurements were performed on a Monolith NT.115 instrument (Nanotemper Technologies, GmbH). Purified His6-tagged hargI sample was labeled with the Monolith His-Tag Labeling Kit RED-tris-NTA (MO-L008) according to the protocol (Nanotemper Technologies, GmbH). All measurements were performed in triplicate in MST buffer (25 mM Tris-HCl pH 7.5, 125 mM NaCl, 1% Glycerol and 1 mM BME, 0.05% Tween-20) using standard capillaries (K002, Nanotemper Technologies, GmbH). Labeled hargI was used at a final concentration of 50 nM according to the manufacturer’s recommendations. All measurements were performed at 60% LED excitation power and 40% MST power, Laser-On time was 30 s, Laser-Off time 5 s. The peptide REGNH was titrated in 1:1 dilution starting at 2.82 μM. All binding reactions were incubated for 10 min at room temperature followed by centrifugation at 20,000 g before loading into the capillaries.
The ability of the synthetic peptide analogue (REGNH) to bind to wild-type hargI and II was examined using Microscale Thermophoresis (MST) (Nanotemper, GmbH). […] After 10 min incubation at room temperature the dose-response MST curve was measured, which yielded a clear binding curve with determined dissociation constant of 177 ± 50 μM for hargI, and 196 ± 25 μM for hargII (Fig. 2).

human arginase I (hargI) = target: T2, human arginase I (hargI) (Homo sapiens, UniProt P05089); experiment: Dose-response of ABH on hargI in presence/absence of REGNH, L-arginine metabolism; type: biochemical
T2 construct: TEV protease site and linker (N); made in house; host or cells: E. coli BL21 (DE3) RIL
T2 sequence (P05089 with tags, fused parts or gaps): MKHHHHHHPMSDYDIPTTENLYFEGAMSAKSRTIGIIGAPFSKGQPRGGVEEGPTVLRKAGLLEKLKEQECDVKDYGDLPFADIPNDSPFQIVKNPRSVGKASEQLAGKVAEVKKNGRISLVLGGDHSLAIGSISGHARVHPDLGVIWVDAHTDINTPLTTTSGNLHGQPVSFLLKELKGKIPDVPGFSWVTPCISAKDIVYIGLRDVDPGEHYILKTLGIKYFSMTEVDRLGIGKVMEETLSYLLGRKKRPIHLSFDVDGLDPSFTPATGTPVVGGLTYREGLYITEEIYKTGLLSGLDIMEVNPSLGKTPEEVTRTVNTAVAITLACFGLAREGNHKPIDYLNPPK
Experimental: The Arginases activity was assessed by colorimetric measurement of produced urea. The assays were performed in 96-well plates (Greiner) using Assay buffer [100 mM Na-phosphate pH 7.4, 130 mM NaCl]. Final volume of each reaction was 60 μl, the final concentration of hargI and hargII was 50 nM in each well. Samples containing no hargI or hargII were used as negative control. The peptide inhibitor was added based on experiment setting, dose ranging from 20 mM to 9.8 μM. Each sample was pre-incubated for 30 min in a 37 °C shaking incubator (100 rpm) and the reactions were started by adding concentrated substrate buffer [Assay buffer supplemented with 100 mM L-arginine, 500 mM Glycine and 1.25 mM MnCl2]. Reactions were performed in a shaking incubator at 37 °C and quenched after 1 h using a Stop mix. The Stop mix consisted of two volumes of freshly prepared solution A [Antipyrine/ H2SO4 reagent: 5 g/L of antipyrine(1,5-dimethyl-2-phenyl-3-pyrazolone) in 50%(v/v) sulfuric acid] and one volume solution B [Oxime reagent: 0.8 g 2,3-Butanedione monoxime in 100 ml of 5%(v/v) acetic acid]. […] The color turns to brown and changes in optical density (OD) at 466 nm reflecting the production of urea were quantified using the Synergy H1 Hybrid Reader (BioTek).

[2] = system: Arg308Ala mutant of human arginase I; conditions: low concentrations of guanidinium chloride, ref [17], cited from earlier work
Source text: A promising avenue in arginase inhibitors research is a structural feature that shared by all mammalian arginases – the S-shaped motif at the C-terminal. The functional significance of this motif is that it accounts for 54% of intersubunit contacts. In Human Arginase I (hargI) the S-shaped motif is comprised by residues 304–322, where Arg308 is thought to play the major role, as it forms a salt bridge with Glu262. In rat liver arginase I, Arg308 also forms an intermonomer salt bridge with Asp204 from an adjacent subunit. The importance of Arg308 is supported by the di ... || The aim of the described research is to examine the effect of the peptide analogue REGNH (residue 308–312), which comprises part of the S-shape motif from the C-terminal (residue 308–322) on hargI. A previous study has shown that the C terminal tail plays a critical role in retaining trimeric protein assembly, as well as in the cooperative response of arginase in L-arginine metabolism.

[3] = system: wild-type and truncated (terminating at Arg308 or Ala308) arginase I; conditions: wild-type and truncated species terminating at Arg308 or Ala308, even at higher concentrations; ref [17]; cited from earlier work
Source text: A promising avenue in arginase inhibitors research is a structural feature that shared by all mammalian arginases – the S-shaped motif at the C-terminal. The functional significance of this motif is that it accounts for 54% of intersubunit contacts. In Human Arginase I (hargI) the S-shaped motif is comprised by residues 304–322, where Arg308 is thought to play the major role, as it forms a salt bridge with Glu262. In rat liver arginase I, Arg308 also forms an intermonomer salt bridge with Asp204 from an adjacent subunit. The importance of Arg308 is supported by the di ...

| Kd ([1]; MST, ABH to hargI, MST buffer pH 7.5) | binding to hargI ([1]; dose-dependent MST assay) | IC50 (human arginase I (hargI); ABH on hargI, printed in parentheses after 'those of the apo-enzyme', the comparison is with hargI + 1 mM REGNH) | Structure (SMILES) | inhibition of hargI by ABH in presence of REGNH compared with apo-enzyme (human arginase I (hargI); hargI supplemented with 1 mM peptide REGNH) | activity of Arg308Ala mutant with Gdn+ [2] | trimeric assembly and substrate cooperativity of Arg308Ala mutant with Gdn+ [2] | activity of Arg308Ala mutant with Gdn+ ([2]; listed as Gdn^+) | response of wild-type and truncated species to Gdn+ [3] |
| --- | --- | --- | --- | --- | --- | --- | --- | --- |
| ~600 nM | strong binding | 1000 ± 30 nM | N[C@@H](CCCCB(O)O)C(=O)O [ABH, 2-(S)-amino-6-boronohexanoic acid] | comparable inhibition constants to those of the apo-enzyme | – | – | – | – |
| – | – | – | Cl.N=C(N)N [guanidinium chloride] | – | significantly increased activity | restored the trimeric assembly and substrate cooperativity | significantly increased | not responsive |
